Assays:
[1] = biological target: T1, CDK-1/cyclin B (Homo sapiens, UniProt P06493); experiment: Kinase HotSpot activity assay, single dose in duplicate; format: biochemical; details: 10 µM; 10 μM compound; 10 μM ATP; value is residual kinase activity, not inhibition
T1 construct: gene CDK1; Reaction Biology Corp. Kinase HotSpot service; with G2/mitotic-specific cyclin-B1

[2] = biological target: T2, HER-2 (Homo sapiens, UniProt P04626); experiment: as above; format: biochemical; details: 10 µM; 10 μM compound; 10 μM ATP; value is residual kinase activity, not inhibition
T2 construct: gene ERBB2; Reaction Biology Corp. Kinase HotSpot service
T2 sequence (P04626 676-1255 limits assumed): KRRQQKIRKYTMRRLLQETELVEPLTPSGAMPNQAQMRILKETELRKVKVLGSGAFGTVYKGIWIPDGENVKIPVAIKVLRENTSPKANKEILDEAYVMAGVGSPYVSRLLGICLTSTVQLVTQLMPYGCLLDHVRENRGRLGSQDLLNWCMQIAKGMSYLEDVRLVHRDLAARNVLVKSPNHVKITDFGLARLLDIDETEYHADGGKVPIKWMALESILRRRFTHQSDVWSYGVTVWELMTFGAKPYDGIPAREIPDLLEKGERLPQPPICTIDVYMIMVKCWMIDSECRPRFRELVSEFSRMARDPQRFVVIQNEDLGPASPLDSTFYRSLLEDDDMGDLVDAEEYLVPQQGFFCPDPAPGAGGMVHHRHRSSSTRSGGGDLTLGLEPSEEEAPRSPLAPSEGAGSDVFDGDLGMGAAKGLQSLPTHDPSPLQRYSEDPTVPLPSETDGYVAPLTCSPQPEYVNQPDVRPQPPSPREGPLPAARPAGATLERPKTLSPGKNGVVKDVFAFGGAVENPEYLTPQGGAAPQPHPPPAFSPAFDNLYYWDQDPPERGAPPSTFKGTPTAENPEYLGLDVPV

T1 sequence (P06493 whole entry): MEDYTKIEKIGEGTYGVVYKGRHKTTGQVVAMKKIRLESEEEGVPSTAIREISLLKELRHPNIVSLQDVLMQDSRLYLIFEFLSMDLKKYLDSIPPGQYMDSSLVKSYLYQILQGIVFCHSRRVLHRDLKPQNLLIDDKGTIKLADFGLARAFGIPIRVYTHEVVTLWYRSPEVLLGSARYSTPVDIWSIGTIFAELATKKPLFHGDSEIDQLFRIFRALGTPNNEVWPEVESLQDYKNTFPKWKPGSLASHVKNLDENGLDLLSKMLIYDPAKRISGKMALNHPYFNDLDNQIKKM
T1 sequence (P14635 whole entry partner): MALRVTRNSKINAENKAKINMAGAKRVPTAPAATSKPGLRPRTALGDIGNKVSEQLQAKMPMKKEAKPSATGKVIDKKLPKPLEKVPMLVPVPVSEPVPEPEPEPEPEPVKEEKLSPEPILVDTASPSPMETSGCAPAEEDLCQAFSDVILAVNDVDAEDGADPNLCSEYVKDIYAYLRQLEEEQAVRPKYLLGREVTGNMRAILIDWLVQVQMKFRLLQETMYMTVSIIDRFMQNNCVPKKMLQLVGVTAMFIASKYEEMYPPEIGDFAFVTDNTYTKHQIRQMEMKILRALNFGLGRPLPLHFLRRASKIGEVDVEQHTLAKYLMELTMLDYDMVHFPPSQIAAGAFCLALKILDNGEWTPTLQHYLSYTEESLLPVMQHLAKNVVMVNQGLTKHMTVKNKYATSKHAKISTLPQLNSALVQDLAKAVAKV

% Activity / CDK-1/cyclin B [1]: 51%
% Activity / HER-2 [2]: 52%
SMILES: O=C(Nc1ccc2c(ccn2C(=O)c2cccc(F)c2)c1)c1ccnnc1 [15l]

From article PMC8433807, “Scaffold Repurposing of In-House Small Molecule Candidates Leads to Discovery of First-in-Class CDK-1/HER-2 Dual Inhibitors: In Vitro and In Silico Screening” (Molecules, 2021)
